Assay results published in patent US20250120912A1, “SYNERGISTIC NANOMEDICINE DELIVERING TOPOISOMERASE I TOXIN (SN-38) AND INHIBITORS OF POLYNUCLEOTIDE KINASE 3'-PHOSPHATASE (PNKP) FOR ENHANCED TREATMENT OF COLORECTAL CANCER” (THE GOVERNORS OF THE UNIVERSITY OF ALBERTA, priority 2021, published 2025).
≈ marks a conversion by molar mass, not a printed value. Like-named read-outs stand apart in the source and are kept apart here.

Columns and labels:
HT-29 [1] = assay: In vitro cytotoxicity assay (MTS); conditions: Homo sapiens
Procedure: (§2) Two CRC cell lines, HCT116 and HT-29 originally purchased from ATCC were used. The cells were cultured at 37° C. in 5% CO2 in a humidified incubator in a 1:1 mixture of Dulbecco's modified Eagle medium and F12 (DMEM/F12) supplemented with 10% FBS, 50 U/mL penicillin, 50 mg/mL streptomycin, 2 mmol/L L-glutamine, 0.1 mmol/L nonessential amino acids, and 1 mmol/L sodium pyruvate.
(§3) In brief, 2×10^3 cells were plated in each well of 96-well flat-bottomed plates 24 h prior to the treatments. […] After different experimental incubation time points (24, 48, and 72 h), 20 μL of MTS reagent was added in each well and further incubated for 1 h at 37° C. before measuring the absorbance at 490 nm using BioTEK microplate reader. Each experiment was performed in quadruplicates.

HCT116 [2] = assay: In vitro cytotoxicity assay (MTS)
Procedure: as §2, §3

HT-29 [3] = assay: Western blot of cleaved PARP, γ-H2AX, cleaved caspase-3 and -7; assay type: cell-based, human; conditions: HT-29, 10 μM, 6 h
Procedure: (§1) In brief, 1×10^6 cells were plated in each well of 6-well plates 24 h prior to the treatments. […] The cells of 3 controls received only 0.1% DMSO, 10 μM A83, and 10 μM PM26/A83, respectively. Protein extracts for western blot analysis were prepared using commercial RIPA lysis buffer (ThermoFisher Scientific, Canada) supplemented with a cocktail of protease inhibitors (Millipore Sigma, Canada). Protein concentrations were measured using the BCA assay kit (Pierce/ThermoFisher Scientific, Canada) according to the manufacturer's protocol. Equal concentrations of protein were separated by SDS-PAGE and transferred to nitrocellulose membranes. After blocking with 5% skimmed milk in TBST (50 mM Tris-HCl, pH 7.4, 150 mM NaCl, and 0.1% Tween 20), the blots were incubated with the respective primary antibodies (cleaved caspase-3 cat #9661S, cleaved caspase-7 cat #9491S, PARP cat #9542S, phospho-histone H2A.X (Ser139) cat #9718S) and secondary antibody (HRP-linked anti-rabbit IgG cat #7074S) purchased from Cell Signaling Technology (Whitby, ON, Canada). The protein bands were detected using an enhanced chemiluminescence (ECL) based system (Pierce/ThermoFisher Scientific, Canada). The band intensities for the PNKP protein were quantified by performing optical density analysis using ImageJ software. Each experiment was carried out in triplicate.

HCT116 [4] = assay: as above; assay type: cell-based, human; conditions: HCT116, 10 μM, 6 h
Procedure: as §1

[5] = In vitro drug release, dialysis-bag diffusion technique; assay type: physicochemical; conditions: dialysis MWCO 3.5 kDa, 4% albumin in water, 37° C., n=3
Procedure: […] The concentrations of SN-38 in collected samples were determined by UV-Vis spectrophotometer (BioTEK, Winooski, VT, USA). Detection was performed at a wavelength of 383 nm. […] All experiments were carried out in triplicate.

[6] = Water solubilized level of drug; assay type: physicochemical
healthy CD-1 mice = conditions: up to 50 mg/kg intravenously, Cremophor EL: Ethanol or micellar formulation [20]; cited from earlier work
[7] = literature [5]; cited from earlier work

In the case of `CCc1c2c(nc3ccc(OC(=O)N4CCC(N5CCCCC5)CC4)cc13)-c1cc3c(c(=O)n1C2)COC(=O)[C@]3(O)CC` [Irinotecan, 7-ethyl-10-[4-(1-piperidino)-1-piperidino] carbonyloxycamptothecin], the IC50 (HT-29 [1]; HT-29, 24 h, read-out: IC50 (relative IC50)) is reported as 10.7 ± 4.5 µM, the IC50 (HT-29 [1]; HT-29, 48 h, read-out: IC50 (relative IC50)) is reported as 11.6 ± 4.3 µM and the IC50 (HT-29 [1]; HT-29, 72 h, read-out: IC50 (relative IC50)) is reported as 7.1 µM. For the same compound, the IC50 (HCT116 [2]; Homo sapiens, HCT-116, 24 h, read-out: IC50 (relative IC50)) was 7.3 ± 3.7 µM, the IC50 (HCT116 [2]; Homo sapiens, HCT-116, 48 h, read-out: IC50 (relative IC50)) was 3.9 ± 1.7 µM and the IC50 (HCT116 [2]; Homo sapiens, HCT-116, 72 h, read-out: IC50 (relative IC50)) was 6.3 ± 1.6 µM.

For `COc1ccccc1C(O)C1C=CC2C(=O)N(Cc3cccc4ccccc34)C(=O)C2N1Nc1ccc([N+](=O)[O-])cc1` (centres unmarked) [A83B4C63, 2-[hydroxy (2-methoxyphenyl)methyl]-6-(naphthalene-1-ylmethyl)-1-[(4-nitrophenyl)amino]-2H, 4aH, 7aH-pyrrolo[3,4-b]pyridine-5,7-dione], the IC50 (HT-29 [1]; HT-29, read-out: relative IC50 of PNKP inhibitor alone) was over 40 µM, the apoptotic signaling (HT-29 [3]) was “no apoptotic signaling” and the apoptotic signaling (HCT116 [4]) was “no apoptotic signaling”. The “release of A83B4C63” value ([5]; over 6 h) was 98.81±2.09%, the solubility ([6]; water, without micelles) was 1 µM (≈ 0.565 µg/mL) and the “systemic and tissue toxicity” value (healthy CD-1 mice) was “neither systemic nor tissue toxicity”. It also gave an IC50 (HCT116 [2]; Homo sapiens, HCT-116, read-out: relative IC50 of PNKP inhibitor alone) of over 40 µM.

For `CCc1c2c(nc3ccc(O)cc13)-c1cc3c(c(=O)n1C2)COC(=O)[C@]3(O)CC` [SN-38, (S)-4, 11-Diethyl-4,9-di-OH-1, 12-dihydro-4H-2-oxa-6,12α-diaza-dibenzo[b, h]fluorene-3,13-dione], the “release of SN-38” value ([5]; over 6 h) was 96.46±1.43%, the “release of A83B4C63” value ([5]; over 24 h) was 99.81±0.01% and the “water solubilized level of SN-38” value ([6]; unconjugated SN-38) was 25 µg/mL. For the same compound, the IC50 (HCT116 [2]; read-out: IC50 (relative IC50), HCT116, 24 h, as TOP1 inhibitor concentration, A83B4C63 10 μM where present, n = 4) was 0.14 ± 0.04 µM, the IC50 (HCT116 [2]; read-out: IC50 (relative IC50), HCT116, 48 h, as TOP1 inhibitor concentration, A83B4C63 10 μM where present, n = 4) was 0.05 ± 0.01 µM and the IC50 (HCT116 [2]; read-out: IC50 (relative IC50), HCT116, 72 h, as TOP1 inhibitor concentration, A83B4C63 10 μM where present, n = 4) was 0.02 ± 0.01 µM. The “potency relative to the prodrug irinotecan” value [7] was 1,000 times.
